Source: US20050209151A1, “Use of peptides” (priority 1999, published 2005)
Where no end group is shown, it is not given here.

What was measured:
[1] = system: ACTH concentration in blood; experiment: ACTH concentration in blood after intraventricular administration of PrRP-31; format: in vivo, Wistar rats; details: PrRP-31 1, 3 or 10 nmol intraventricular
Experimental: (§1) Adult male Wistar rats (body weight 350 to […] at surgery) were anesthetized with intraperitoneal administration of 50 mg/kg pentobarbital and immobilized in stereotaxic instruments. The incisor bar was set 3.3 mm below the interaural line. The skull was exposed, and a hole was drilled with a dental drill to implant a guide cannula AG-12 (inside diameter of 0.4 mm, outside diameter of 0.5 mm, by Eicom) in the third ventricle. Anchor screws were implanted in four surrounding locations. The tip of the stainless steel guide cannula AG-12 was inserted into position in the upper part of the third ventricle. The stereotaxic coordinates were AP: +7.1 mm, L: 0.0 mm, H: +2.0 mm, from the interaural line, according to the atlas of Paxinos and Watson (1986). The guide cannula was secured to the skull with instant adhesive, dental cement, and the anchor screws. A stainless-steel dummy cannula AD-12 (0.35 mm outside diameter, by Eicom) was then inserted into the guide cannula and secured with a cap nut (by Eicom). The rats were post-operatively housed in individual cages.
(§2) The animals were allowed to recover for about 1 week after the implantation of the guide cannulas, and blood samples were taken as they were allowed to move freely. The rats were then anesthetized with intraperitoneal administration of 50 mg/kg pentobarbital. […]

[2] = system: β-endorphin concentration in blood; experiment: β-endorphin concentration in blood after intraventricular administration of PrRP-31; format: in vivo, Wistar rats; details: PrRP-31 1, 3 or 10 nmol intraventricular
Experimental: as §1, §2

[3] = plasma radioimmunoassay, 0-60 min

## PrRP-31: amide form of the peptide consisting of the amino acid sequence in SEQ ID NO. 32 (SRTHRHSMEIRTPDINPAWYASRGIRPVGRF-NH2)
[1]
  time of peak ACTH concentration in blood after dosing: 15 min
[1]; [3]
  ACTH concentration in blood compared to the control group: higher concentration-dependent increases
[2]
  time of peak β-endorphin concentration in blood after dosing: 15 min
[2]; [3]
  β-endorphin concentration in blood compared to the control group: higher concentration-dependent increases
